{
  "source": "patent US10034966B2",
  "about": "“Coated vaso-occlusive device and methods for treatment of aneurysms” (Carnegie Mellon University, priority 2013, dated 2018)",
  "origin": "cited, not measured here",
  "tested_on": "L929 fibroblasts",
  "data": [
    {"smiles": "COC(=O)C1=CO[C@@H](O)[C@@H]2C(CO)=CC[C@H]12", "note": "[genipin, methyl (1S,2R,6S)-2-hydroxy-9-(hydroxymethyl)-3-oxabicyclo[4.3.0]nona-4,8-diene-5-carboxylate]", "values": [
      {"measurement": "cell death to L929 fibroblasts", "setting": "exposures of 5 mM and 10 mM", "value": "can cause cell death"},
      {"measurement": "cytotoxicity, cell samples compared with controls", "setting": "incubated in 1 mM", "value": "indistinguishable from controls"}
    ]}
  ]
}
